Test results published in patent US20200261470A1, “COMBINATION TREATMENT WITH ANTIBODY-DRUG CONJUGATES AND PARP INHIBITORS” (IMMUNOGEN, INC., priority 2016, published 2020).
pIC50: −log10 of the molar value.

Experiments:
[1] = test system: human CD33+ AML (HEL-luciferase) xenografts; type: in vivo; settings: IMGN779 15 mcg/kg, olaparib 100 mg/kg, alone or combined
Experimental: In these experiments, stably transfected luciferase-positive human AML cells (HEL) characterized by high hCD33 expression levels were injected via tail vein into sublethally irradiated 6-8 week old SCID mice. […] In vivo systemic leukemia disease burden was evaluated weekly by small animal bioluminescent imaging. Toxicity was determined by clinical examination and weight measurements throughout the experiment. Overall study endpoints were (a) time to overall morbidity/mortality and/or (b) change in leukemia disease burden as compared with vehicle-treated mice or mice treated with single agent therapy. […] Simple stastical analyses will be performed utilizing the Stat Prism statistical software.

HEL-luc cells = assay: Proliferation measured with WST-8 reagent, HEL-luc cells; type: cell-based, human; settings: for pIC50: Homo sapiens, HELluc cell line, single agent, read-out: IC50 values for PARP inhibitors in AML cell lines
Experimental: (§1) Proliferation was measured following incubation with WST-8 reagent. Synergistic/additive effects were calculated using Compusyn software at varying drug concentrations. Flow cytometry for apoptosis, viability, DNA damage/repair, and cell cycle effects following combination versus single drug treatment were also performed.

HEL cells = assay: Cell death after DNA-damaging radiation exposure in the presence of olaparib; type: cell-based, human; settings: graded concentrations of olaparib; 0.5 Gy and 0.75 Gy radiation
[2] = test system: Human CD33+ AML cell lines (HEL, MV4-11, and HL60); assay: Proliferation by WST-8 reagent with Compusyn synergy analysis, CD33+ AML cell lines; settings: single agent, all CD33+ human AML cell lines tested
Experimental: Proliferation was measured by WST-8 reagent. Synergistic/additive effects were calculated using Compusyn software. Flow cytometry was performed to assess apoptosis, cell viability, and cell cycle effects.

HL60 cells = assay: Proliferation measured with WST-8 reagent, HL60 cells; type: cell-based; settings: Homo sapiens, HL-60; HL60 cell line, single agent; read-out: IC50 values for PARP inhibitors in AML cell lines
Experimental: as §1

| pIC50 (HL60 cells) | SMILES | median overall survival from inoculation [1] [days] | pIC50 (HEL-luc cells) | cell death after DNA-damaging radiation exposure (HEL cells) | growth inhibition in vitro [2] | relative potency among PARP inhibitors (HEL-luc cells; HEL-luc and HL60 cell lines) | surviving fraction of cells (HEL-luc cells; PARP inhibitor 0.8 μM, IMGN779 800 pM, compared with olaparib and niraparib) |
| --- | --- | --- | --- | --- | --- | --- | --- |
| 4.12 | CNCc1ccc(-c2[nH]c3cc(F)cc4c3c2CCNC4=O)cc1 [Rucaparib, rucaparib] | – | 4.41 | – | – | – | – |
| 4.06 | C[C@]1(c2nc3c(C(N)=O)cccc3[nH]2)CCCN1 [Vellparib, veliparib] | – | < 4.00 | – | – | – | – |
| 6.70 | Cn1ncnc1[C@H]1c2n[nH]c(=O)c3cc(F)cc(c23)N[C@@H]1c1ccc(F)cc1 [Talazoparib, talazoparib] | – | 6.40 | – | – | most potent PARP inhibitor | greatest decrease in surviving fraction of cells |
| 5.60 | NC(=O)c1cccc2cn(-c3ccc([C@@H]4CCCNC4)cc3)nc12 [Niraparib, niraparib] | – | 5.14 | – | – | – | – |

| SMILES | pIC50 (HL60 cells) | median overall survival from inoculation [1] [days] | pIC50 (HEL-luc cells) | cell death after DNA-damaging radiation exposure (HEL cells) | growth inhibition in vitro [2] | relative potency among PARP inhibitors (HEL-luc cells; HEL-luc and HL60 cell lines) | surviving fraction of cells (HEL-luc cells; PARP inhibitor 0.8 μM, IMGN779 800 pM, compared with olaparib and niraparib) |
| --- | --- | --- | --- | --- | --- | --- | --- |
| O=C(c1cc(Cc2n[nH]c(=O)c3ccccc23)ccc1F)N1CCN(C(=O)C2CC2)CC1 [Olaparib, olaparib] | 5.05 | 33.7 | 5.13 | correlation in increase cell death and apoptosis with the increase in concentration of olaparib | dose-dependent grown inhibition | – | – |
